What was measured:
[1] = target: Adenosine receptor A2a (Cavia porcellus, UniProt P46616); test: Affinity against adenosine A2 receptor in the brain membranes measured by the displacement of [3H]-CPX; assay type: cell membranes, Membrane
[2] = target: T1, Adenosine receptor A1 (Cavia porcellus, UniProt P47745); test: Affinity against adenosine A1 receptor in the brain membranes by the displacement of [3H]CPX.; assay type: cell membranes, Membrane
T1 sequence (P47745 whole entry): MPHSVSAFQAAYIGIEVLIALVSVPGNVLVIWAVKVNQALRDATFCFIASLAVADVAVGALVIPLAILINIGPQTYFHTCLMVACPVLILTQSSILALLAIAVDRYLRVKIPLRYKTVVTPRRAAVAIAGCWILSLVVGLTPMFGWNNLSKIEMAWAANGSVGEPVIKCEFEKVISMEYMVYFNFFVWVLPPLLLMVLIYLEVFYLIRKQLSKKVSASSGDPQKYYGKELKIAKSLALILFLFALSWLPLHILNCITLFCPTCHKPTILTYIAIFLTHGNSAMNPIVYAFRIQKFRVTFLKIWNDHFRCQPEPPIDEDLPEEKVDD

[3] = Inhibition of c-AMP phosphodiesterase activity in guinea pig tracheal muscle
[4] = Ratio of stimulatory activity in right atrium to relaxant activity in tracheal muscle; assay type: functional, Cardiac atrium
[5] = target: T2, Adenosine receptor A1 (Cavia porcellus) (UniProt P47745); test: Positive chronotropic effect on isolated guinea pig right atrium (heart stimulation).; assay type: functional, tissue-based; conditions: Cardiac atrium
T2 sequence (whole entry): T1 sequence (P47745 whole entry)

[6] = Inhibitory activity against c-AMP phosphodiesterase in guinea pig tracheal muscle.
[7] = tested on: Cavia porcellus; test: In vivo reduction of acetylcholine-induced bronchospasm in guinea pigs by intraduodenal dose; assay type: functional
[8] = tested on: Cavia porcellus; test: In vivo positive chronotropic effect on isolated guinea pig right atrium; assay type: functional, Cardiac atrium
[9] = target: Adenosine A2 receptor (Homo sapiens, UniProt P29275+P29274); test: Affinity against adenosine A2 receptor in brain membranes by displacement of [3H]CPX; assay type: cell membranes, Cavia porcellus, Membrane

Sequence of Adenosine receptor A2a (P46616 whole entry): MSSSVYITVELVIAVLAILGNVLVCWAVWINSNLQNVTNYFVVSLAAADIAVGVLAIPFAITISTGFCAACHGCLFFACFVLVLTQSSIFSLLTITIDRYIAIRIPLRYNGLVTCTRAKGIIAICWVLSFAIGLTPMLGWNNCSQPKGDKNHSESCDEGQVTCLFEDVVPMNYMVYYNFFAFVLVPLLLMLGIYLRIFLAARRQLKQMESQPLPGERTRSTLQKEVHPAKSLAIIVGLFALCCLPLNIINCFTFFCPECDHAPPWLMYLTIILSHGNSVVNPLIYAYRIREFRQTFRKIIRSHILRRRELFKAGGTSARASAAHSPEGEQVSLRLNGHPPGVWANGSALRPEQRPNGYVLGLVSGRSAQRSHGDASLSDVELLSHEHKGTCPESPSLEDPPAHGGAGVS

Cn1c(=O)[nH]c2nc[nH]c2c1=O [1-METHYLXANTHINE]
Ki [1]: 67.1 µM | Ki [2]: 11.5 µM

CCCn1c(=O)c2nc[nH]c2n(C)c1=O
Ki [3]: 26 µM | Broncho selectivity [4]: 3.7 | EC15 [5]: 36.2 µM

CCCCn1c(=O)c2[nH]cnc2n(CCC)c1=O
Ki [1]: 4.1 µM | Ki [2]: 0.02 µM

CCCn1c(=O)c2nc[nH]c2n(CCC)c1=O
EC15 [5]: 20 µM | Ki [2]: 0.2 µM

CCCCn1c(=O)n(C)c(=O)c2[nH]cnc21
Broncho selectivity [4]: 1.7 | Ki [6]: 10.2 µM | Ki [1]: 4.8 µM | EC15 [5]: 2.2 µM | Ki [2]: 1.9 µM

Cn1c(=O)[nH]c2[nH]cnc2c1=O [1-METHYLXANTHINE]
Ki [3]: 163 µM | Broncho selectivity [4]: 1.3 | EC15 [5]: > 100 µM

CCCn1c(=O)[nH]c2[nH]cnc2c1=O
EC15 [5]: > 100 µM

CCCCn1c(=O)c2nc[nH]c2n(C)c1=O
EC15 [5]: 90.5 µM | Ki [2]: 4.3 µM

CCCn1cnc2c1c(=O)[nH]c(=O)n2CCC
Ki [3]: 35 µM | Broncho selectivity [4]: >6.3 | EC15 [5]: > 100 µM | Ki [2]: 18.2 µM

CCCn1c(=O)n(C)c(=O)c2[nH]cnc21
Ki [3]: 10.6 µM | Broncho selectivity [4]: 2.1 | Ki [1]: 8 µM | EC15 [5]: 3.3 µM | Ki [2]: 1.9 µM

CCn1c(=O)[nH]c(=O)c2[nH]cnc21
EC15 [5]: > 100 µM | Ki [2]: 117 µM

CCCCn1c(=O)c2nc[nH]c2n(CCC)c1=O
ED50 [7]: 2.87 mg/kg | EC15 [5]: 29 µM | ED15 [8]: >100 mg kg-1 i.d.

Cn1c(=O)c2nc[nH]c2n(C)c1=O.O [THEOPHYLLINE]
ED50 [7]: 23.4 mg/kg | ED15 [8]: 20.2 mg kg-1 i.d.

CCCn1c(=O)c2[nH]cnc2n(C)c1=O
Ki [2]: 3.4 µM

CCCn1c(=O)c2c(ncn2C)n(CCC)c1=O
EC15 [5]: 45.8 µM | Ki [2]: 7.7 µM

CCCn1c(=O)[nH]c(=O)c2nc[nH]c21 [ENPROFYLLINE]
ED50 [7]: 25.7 mg/kg | EC15 [5]: 18.3 µM | ED15 [8]: 95.1 mg kg-1 i.d.

CCCCn1cnc2c1c(=O)n(C)c(=O)n2CCC
Ki [3]: > 200 µM | Broncho selectivity [4]: 32.3 | Ki [1]: 15.3 µM | EC15 [5]: > 100 µM | Ki [2]: 7.3 µM

CCCn1c(=O)n(CC)c(=O)c2c1ncn2C
Broncho selectivity [4]: 4 | Ki [6]: 19.4 µM | EC15 [5]: 30 µM | Ki [2]: 11.8 µM

CCCn1c(=O)n(C)c(=O)c2c1ncn2CC
EC15 [5]: > 100 µM | Ki [2]: 14.2 µM

CCCCn1c(=O)[nH]c2[nH]cnc2c1=O
EC15 [5]: > 100 µM

O=c1[nH]c(=O)c2nc[nH]c2[nH]1
EC15 [5]: > 100 µM

CCCn1c(=O)[nH]c(=O)c2c1ncn2C
EC15 [5]: > 100 µM | Ki [2]: 90.6 µM

CCCn1cnc2c1c(=O)n(C)c(=O)n2CCC
Ki [3]: 30.8 µM | Broncho selectivity [4]: 9 | Ki [1]: 43.8 µM | EC15 [5]: 45.2 µM | Ki [2]: 9.4 µM

CCn1c(=O)c2nc[nH]c2n(C)c1=O
EC15 [5]: 34 µM | Ki [2]: 9.8 µM

O=c1[nH]c(=O)c2[nH]cnc2[nH]1 [XANTHINE]
Ki [2]: > 200 µM

CCCCn1cnc2c1c(=O)[nH]c(=O)n2CCC
Ki [3]: 36.5 µM | Broncho selectivity [4]: 7.1 | EC15 [5]: > 100 µM | Ki [2]: 12.1 µM

CCCCn1c(=O)[nH]c2nc[nH]c2c1=O
Ki [1]: 15.4 µM | Ki [2]: 3 µM

CCCn1c(=O)[nH]c2nc[nH]c2c1=O
Ki [1]: 23.4 µM | Ki [2]: 3.3 µM

CCCn1c(=O)[nH]c(=O)c2c1ncn2CC
Broncho selectivity [4]: 12 | Ki [6]: 13.2 µM | EC15 [5]: > 100 µM | Ki [2]: 40.4 µM

CCCn1c(=O)n(C)c(=O)c2c1ncn2C
Ki [1]: 20.1 µM | EC15 [5]: 45.4 µM | Ki [2]: 14.5 µM

CCn1c(=O)[nH]c2[nH]cnc2c1=O
EC15 [5]: > 100 µM

Cn1c(=O)[nH]c(=O)c2[nH]cnc21 [3-METHYLXANTHINE]
Ki [9]: 133 µM | EC15 [5]: > 100 µM

CCn1c(=O)n(C)c(=O)c2[nH]cnc21
Ki [1]: 25.4 µM | EC15 [5]: 28.5 µM | Ki [2]: 7.6 µM

CCCn1c(=O)n(CC)c(=O)c2[nH]cnc21
Ki [3]: 24.1 µM | Broncho selectivity [4]: 4.7 | Ki [1]: 3.9 µM | EC15 [5]: 6.1 µM | Ki [2]: 1.4 µM

CCCCn1c(=O)[nH]c(=O)c2[nH]cnc21
Ki [3]: 32 µM | Broncho selectivity [4]: 2.1 | EC15 [5]: 17 µM | Ki [2]: 21.4 µM

CCCCn1c(=O)c2c(ncn2C)n(CCC)c1=O
ED50 [7]: 2.34 mg/kg | Broncho selectivity [4]: 71.4 | Ki [6]: 30.1 µM | EC15 [5]: > 100 µM | ED15 [8]: >100 mg kg-1 i.d. | Ki [2]: 6 µM

Cn1c(=O)c2[nH]cnc2n(C)c1=O
EC15 [5]: 62 µM

CCn1c(=O)[nH]c2nc[nH]c2c1=O
Ki [1]: 34 µM | Ki [2]: 9.8 µM

Reference: ChEMBL document CHEMBL1125335 (J Med Chem, 1992)
